Laboratory results published in PubChem BioAssay (NCI).
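All cell lines were grown in 96-well plates and treated with compound for 48 hours. GI50 is the concentration that inhibits growth by half. TGI marks complete inhibition of growth.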

Legend:
Assay in all cases: NCI-60 cell line screen, 48 h
[1] = test system: SNB-19 CNS
[2] = test system: HCT-116 colon
[3] = test system: PC-3 prostate
[4] = test system: IGROV1 ovarian
[5] = test system: NCI/ADR-RES ovarian
[6] = test system: HCT-15 colon
[7] = test system: MCF7 breast
[8] = test system: HL-60(TB) leukemia
[9] = test system: 786-0 renal
[10] = test system: U251 CNS
[11] = test system: SF-539 CNS
[12] = test system: HOP-92 NSCLC
[13] = test system: NCI-H226 lung
[14] = test system: MDA-MB-435
[15] = test system: MALME-3M melanoma
[16] = test system: COLO 205 colon
[17] = test system: SF-268 CNS
[18] = test system: HCC-2998 colon
[19] = test system: K-562 leukemia
[20] = test system: MDA-MB-231 breast
[21] = test system: UACC-257 melanoma
[22] = test system: OVCAR-3 ovarian
[23] = test system: SR leukemia
[24] = test system: RXF 393 renal
[25] = test system: SN12C renal
[26] = test system: CCRF-CEM leukemia
[27] = test system: NCI-H23 lung
[28] = test system: T-47D breast
[29] = test system: EKVX NSCLC
[30] = test system: LOX IMVI melanoma
[31] = test system: BT-549 breast
[32] = test system: A549 NSCLC
[33] = test system: TK-10 renal
[34] = test system: SNB-75 CNS
[35] = test system: DU-145 prostate
[36] = test system: OVCAR-5 ovarian
[37] = test system: HOP-62 NSCLC
[38] = test system: HS 578T breast
[39] = test system: SF-295 CNS
[40] = test system: OVCAR-4 ovarian
[41] = test system: SK-MEL-2 melanoma
[42] = test system: MOLT-4 leukemia
[43] = test system: RPMI-8226 leukemia
[44] = test system: NCI-H522 lung
[45] = test system: SK-MEL-28 melanoma
[46] = test system: HT29 colon
[47] = test system: UACC-62 melanoma
[48] = test system: SW-620 colon
[49] = test system: UO-31 renal
[50] = test system: SK-MEL-5 melanoma
[51] = test system: OVCAR-8 ovarian
[52] = test system: KM12 colon
[53] = test system: SK-OV-3 ovarian
[54] = test system: NCI-H460 lung
[55] = test system: ACHN renal
[56] = test system: A498 renal
[57] = test system: M14 melanoma

Question: Which GI50 [1] does the source give for `Cn1ncc(NC(=O)c2nc(-c3c(F)cccc3F)sc2N)c1N1CC[C@@H](N)[C@H](F)CC1` here?
Answer: 26.3 µM

Question: And the TGI [1]?
Answer: 86.5 µM

Question: What about the GI50 [2] of the same compound?
Answer: 4.33 µM

Question: What about the TGI [2] of the same compound?
Answer: 60.3 µM

Question: What about the GI50 [3] of the same compound?
Answer: 3.6 µM

Question: And the TGI [3]?
Answer: 32 µM

Question: And the GI50 [4]?
Answer: 2.88 µM

Question: What about the TGI [4] of the same compound?
Answer: 19.8 µM

Question: What about the GI50 [5] of the same compound?
Answer: 20.5 µM

Question: What about the TGI [5] of the same compound?
Answer: > 89.8 µM

Question: What about the GI50 [6] of the same compound?
Answer: 3.86 µM

Question: What about the TGI [6] of the same compound?
Answer: 28.7 µM

Question: What about the GI50 [7] of the same compound?
Answer: 2.8 µM

Question: What about the TGI [7] of the same compound?
Answer: 13.9 µM

Question: And the GI50 [8]?
Answer: 4.22 µM

Question: What about the TGI [8] of the same compound?
Answer: 17.3 µM

Question: What about the GI50 [9] of the same compound?
Answer: 3.75 µM

Question: What about the TGI [9] of the same compound?
Answer: 20.8 µM

Question: What about the GI50 [10] of the same compound?
Answer: 8.54 µM

Question: And the TGI [10]?
Answer: 23.9 µM

Question: What about the GI50 [11] of the same compound?
Answer: 3.85 µM

Question: What about the TGI [11] of the same compound?
Answer: 15.3 µM

Question: And the GI50 [12]?
Answer: 4.12 µM

Question: And the TGI [12]?
Answer: 31.3 µM

Question: And the GI50 [13]?
Answer: 1.74 µM

Question: And the TGI [13]?
Answer: 27 µM

Question: And the GI50 [14]?
Answer: 3.61 µM

Question: What about the TGI [14] of the same compound?
Answer: 19.4 µM

Question: What about the GI50 [15] of the same compound?
Answer: 5.18 µM

Question: What about the TGI [15] of the same compound?
Answer: 21 µM

Question: What about the GI50 [16] of the same compound?
Answer: 3.33 µM

Question: And the TGI [16]?
Answer: 16.7 µM

Question: What about the GI50 [17] of the same compound?
Answer: 3.27 µM

Question: What about the TGI [17] of the same compound?
Answer: 32.6 µM

Question: What about the GI50 [18] of the same compound?
Answer: 14.2 µM

Question: And the TGI [18]?
Answer: 35.2 µM

Question: And the GI50 [19]?
Answer: 3.45 µM

Question: What about the TGI [19] of the same compound?
Answer: 28 µM

Question: What about the GI50 [20] of the same compound?
Answer: 6.93 µM

Question: What about the TGI [20] of the same compound?
Answer: 31 µM

Question: And the GI50 [21]?
Answer: 14.4 µM

Question: What about the TGI [21] of the same compound?
Answer: 30.6 µM

Question: What about the GI50 [22] of the same compound?
Answer: 11.1 µM

Question: What about the TGI [22] of the same compound?
Answer: 31.3 µM

Question: And the GI50 [23]?
Answer: 2.37 µM

Question: What about the TGI [23] of the same compound?
Answer: 25 µM

Question: And the GI50 [24]?
Answer: 2.98 µM

Question: And the TGI [24]?
Answer: 15.3 µM

Question: What about the GI50 [25] of the same compound?
Answer: 3.69 µM

Question: What about the TGI [25] of the same compound?
Answer: 43.3 µM

Question: And the GI50 [26]?
Answer: 4.55 µM

Question: What about the TGI [26] of the same compound?
Answer: > 100 µM

Question: And the GI50 [27]?
Answer: 11.4 µM

Question: And the TGI [27]?
Answer: 34.4 µM

Question: What about the GI50 [28] of the same compound?
Answer: 3.34 µM

Question: And the TGI [28]?
Answer: 34.2 µM

Question: What about the GI50 [29] of the same compound?
Answer: 2.95 µM

Question: What about the TGI [29] of the same compound?
Answer: 50.7 µM

Question: What about the GI50 [30] of the same compound?
Answer: 5.71 µM

Question: What about the TGI [30] of the same compound?
Answer: 21 µM

Question: And the GI50 [31]?
Answer: 2.39 µM

Question: What about the TGI [31] of the same compound?
Answer: 16.5 µM

Question: And the GI50 [32]?
Answer: 4.83 µM

Question: And the TGI [32]?
Answer: 25.6 µM

Question: And the GI50 [33]?
Answer: 2.81 µM

Question: And the TGI [33]?
Answer: 41.7 µM

Question: And the GI50 [34]?
Answer: 1.06 µM

Question: And the TGI [34]?
Answer: 8.83 µM

Question: And the GI50 [35]?
Answer: 5.19 µM

Question: And the TGI [35]?
Answer: 42.6 µM

Question: What about the GI50 [36] of the same compound?
Answer: 16.5 µM

Question: What about the TGI [36] of the same compound?
Answer: 54.6 µM

Question: And the GI50 [37]?
Answer: 3.56 µM

Question: What about the TGI [37] of the same compound?
Answer: 22.8 µM

Question: And the GI50 [38]?
Answer: 2.99 µM

Question: And the TGI [38]?
Answer: 14.8 µM

Question: And the GI50 [39]?
Answer: 8.75 µM

Question: What about the TGI [39] of the same compound?
Answer: 24 µM

Question: And the GI50 [40]?
Answer: 4.17 µM

Question: And the TGI [40]?
Answer: 44.3 µM

Question: And the GI50 [41]?
Answer: 3.45 µM

Question: What about the TGI [41] of the same compound?
Answer: 13.5 µM

Question: And the GI50 [42]?
Answer: 3.54 µM

Question: And the TGI [42]?
Answer: 30.5 µM

Question: What about the GI50 [43] of the same compound?
Answer: 2.54 µM

Question: And the TGI [43]?
Answer: 29.3 µM

Question: And the GI50 [44]?
Answer: 2.67 µM

Question: What about the TGI [44] of the same compound?
Answer: 14.9 µM

Question: And the GI50 [45]?
Answer: 10.4 µM

Question: And the TGI [45]?
Answer: 25.6 µM

Question: What about the GI50 [46] of the same compound?
Answer: 5.58 µM

Question: What about the TGI [46] of the same compound?
Answer: 27.5 µM

Question: And the GI50 [47]?
Answer: 5.33 µM

Question: And the TGI [47]?
Answer: 25.2 µM

Question: What about the GI50 [48] of the same compound?
Answer: 3.65 µM

Question: And the TGI [48]?
Answer: 24.8 µM

Question: What about the GI50 [49] of the same compound?
Answer: 1.24 µM

Question: And the TGI [49]?
Answer: 5.67 µM

Question: What about the GI50 [50] of the same compound?
Answer: 4.77 µM

Question: And the TGI [50]?
Answer: 17.8 µM

Question: And the GI50 [51]?
Answer: 8.65 µM

Question: And the TGI [51]?
Answer: 37.1 µM

Question: And the GI50 [52]?
Answer: 12.4 µM

Question: What about the TGI [52] of the same compound?
Answer: 54.1 µM

Question: And the GI50 [53]?
Answer: 1.42 µM

Question: And the TGI [53]?
Answer: 6 µM

Question: And the GI50 [54]?
Answer: 5.02 µM

Question: And the TGI [54]?
Answer: 21.2 µM

Question: And the GI50 [55]?
Answer: 2.67 µM

Question: What about the TGI [55] of the same compound?
Answer: 16.7 µM

Question: What about the GI50 [56] of the same compound?
Answer: 1.17 µM

Question: What about the TGI [56] of the same compound?
Answer: 7.55 µM

Question: And the GI50 [57]?
Answer: 3.03 µM

Question: What about the TGI [57] of the same compound?
Answer: 18.5 µM
